Assay results from US20260028343A1, “Substituted Imidazopyrazine Compounds as Ligand Directed Degraders of IRAK3” (Celgene Corporation, priority 2022, published 2026).
pIC50: −log10 of the molar value.

What was measured:
IRAK3 [1] = biological target: T1, IRAK3 (Homo sapiens, UniProt Q9Y616); test: IRAK3 Biochemical Binding Assay (LanthaScreen Eu Kinase Binding); settings: TR-FRET tracer displacement, 1 hour at room temperature
T1 construct: IRAK Endogenous HTRF Degradation Assay; endogenous in cells
T1 sequence (Q9Y616 1-596): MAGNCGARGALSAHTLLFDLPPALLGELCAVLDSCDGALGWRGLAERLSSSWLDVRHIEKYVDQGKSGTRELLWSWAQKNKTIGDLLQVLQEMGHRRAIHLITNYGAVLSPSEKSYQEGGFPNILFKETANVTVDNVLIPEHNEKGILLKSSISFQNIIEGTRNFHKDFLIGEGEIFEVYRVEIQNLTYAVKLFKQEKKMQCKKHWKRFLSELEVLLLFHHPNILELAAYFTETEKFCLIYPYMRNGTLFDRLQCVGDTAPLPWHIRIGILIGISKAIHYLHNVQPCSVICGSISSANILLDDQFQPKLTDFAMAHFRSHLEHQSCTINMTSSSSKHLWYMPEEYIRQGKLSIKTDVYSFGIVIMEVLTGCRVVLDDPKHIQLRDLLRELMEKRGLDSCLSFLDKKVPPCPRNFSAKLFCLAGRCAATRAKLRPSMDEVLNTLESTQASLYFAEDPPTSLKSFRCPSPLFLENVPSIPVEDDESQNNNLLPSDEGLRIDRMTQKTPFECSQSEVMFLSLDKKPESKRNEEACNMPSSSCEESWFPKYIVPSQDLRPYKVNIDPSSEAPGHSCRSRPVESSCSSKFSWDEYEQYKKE
Description: The LanthaScreen® Eu Kinase Binding assay was performed as described by the vendor (ThermoFisher Scientific Waltham, MA). Briefly, 100× solutions of compound were prepared in DMSO via serial dilution of the 10 mM stock solution in a 384-well reagent plate using 3-fold intervals to achieve final concentrations. 1 μL of the compound dilution series were added to the corresponding wells of a 384-well reagent plate containing 32.3 μL of 1× buffer (50 mM HEPES pH 7.4, […], 1 mM EGTA, 0.01% Brij-35). 5 μL of the buffer diluted compounds were transferred to the corresponding wells of a 384-well assay plate. 5 μL of 3× tracer was transferred to each well of the assay plate for a final tracer concentration of 10 nM. Finally, 5 μL of the 3× Eu-Anti-GST and IRAK3 mix was transferred to each well for a final concentration of 2 nM and 10 nM respectively. Reactions were allowed to incubate for 1 hour at room temperature. TR-FRET signal of the interaction (λex340/λem 665/λem 615) was read at room temperature with a delay time of 100 μs and an integration time of 200 μs using an Envision plate reader. Background corrected emission signal ratios at each compound concentration were used to calculate percentage of inhibition (% Inhibition). Plots of % Inhibition versus inhibitor concentrations were fit according to a dose-response equation (Eq. 1) to generate IC50 and Hill slope values using Dotmatics software (Dotmatics, Bishops Stortford, Hertfordshire, England).
(§1) Using these assays, IC50, Dmax, EC50, and DC50 values of the following compounds were determined. Dmax is defined as the maximum percent degradation achieved and DC50 is the concentration at which 50% degradation is achieved.

IRAK3 [2] = biological target: T1, IRAK3; test: IRAK Endogenous HTRF Degradation Assay; assay type: cell-based; settings: endogenous IRAK3, overnight incubation; for Dmax: % Dmax=100−Ymin; for DC50: concentration at which 50% degradation is achieved
Description: Cells (˜50 k) were plated in Cisbio 96-well low volume white plates (Cisbio: cat #66PL96005). Compounds were dissolved in DMSO and a 3-fold serial dilution was performed using a TECAN D300E. Cells were incubated with the compound overnight. Total-IRAK3 HTRF kit from Cisbio was used for degradation analysis (Cisbio: 63ADK101PEH). Cryptate and D2 antibodies were diluted in Detection buffer as per manufacturers recommendation. Then 2 μL of each solution was added to 16 μL lysate. Buffer control (lysis buffer detection buffer), Cryptate control (lysis buffer+cryptate antibody+detection buffer), and Negative control (lysis buffer+cryptate antibody+D2 antibody) were made as per manufacturers recommendation. Post incubation with antibodies the HTRF signal was measured using a Perkin Elmer Envision reader and the HTRF signal was calculated using formula: (Emission at 665 nm/Emission at 615 nm)*10,000. All HTRF values were normalized to the average value of DMSO. The average value of the DMSO control wells were set to equal 100% of the relative IRAK3 protein levels. Normalized luminescence values were plotted on a graph as a function of compound concentration. Compound concentration was plotted on the x-axis and the corresponding normalized IRAK3 protein levels on the y-axis. The EC50 value (the half-maximum effective concentration) of a compound for the degradation of the IRAK3 was calculated using a four-parameter logistic model (sigmoidal dose−response model)(FIT=(A+{(B−A)/1+[(C/x)D]})) where C is the inflection point (EC50), D is the […], and A and B are the low and high limits of the fit, respectively). The Ymin was calculated by determining the lowest percentage of target protein remaining following compound treatment. Dmax was calculated from Ymin (% Dmax=100−Ymin).
as §1

Structure (SMILES)	pIC50 (IRAK3 [1])	Dmax (IRAK3 [2])	DC50 (IRAK3 [2])
Cc1cccc(-c2cnc(Nc3ccc(N4CCN(C(=O)COc5cccc6c5C(=O)N(C5CCC(=O)NC5=O)C6=O)CC4)cc3)c3nccn23)c1 (stereo not drawn) [Compound 1, 2-(2,6-Dioxopiperidin-3-yl)-4-(2-oxo-2-(4-(4-((5-(m-tolyl)imidazo[1,2-a]pyrazin-8-yl)amino)phenyl)piperazin-1-yl)ethoxy)isoindoline-1,3-dione]	6.56	7%	> 10000 nM
Cc1cccc(-c2cnc(Nc3ccc(N4CCN(C(=O)CCCNC(=O)COc5cccc6c5C(=O)N(C5CCC(=O)NC5=O)C6=O)CC4)cc3)c3nccn23)c1 (stereo not drawn) [Compound 2, 2-((2-(2,6-Dioxopiperidin-3-yl)-1,3-dioxoisoindolin-4-yl)oxy)-N-(4-oxo-4-(4-(4-((5-(m-tolyl)imidazo[1,2-a]pyrazin-8-yl)amino)phenyl)piperazin-1-yl)butyl)acetamide]	7.52	13%	> 10000 nM
Cc1cccc(-c2cnc(Nc3ccc(N4CCN(C(=O)CCOCCNC(=O)COc5cccc6c5C(=O)N(C5CCC(=O)NC5=O)C6=O)CC4)cc3)c3nccn23)c1 (stereo not drawn) [Compound 3, 2-((2-(2,6-Dioxopiperidin-3-yl)-1,3-dioxoisoindolin-4-yl)oxy)-N-(2-(3-oxo-3-(4-(4-((5-(m-tolyl)imidazo[1,2-a]pyrazin-8-yl)amino)phenyl)piperazin-1-yl)propoxy)ethyl)acetamide]	7.08	3%	> 10000 nM
Cc1cccc(-c2cnc(Nc3ccc(N4CCN(C(=O)COc5ccc6c(c5)C(=O)N(C5CCC(=O)NC5=O)C6=O)CC4)cc3)c3nccn23)c1 (stereo not drawn) [Compound 4, 2-(2,6-Dioxopiperidin-3-yl)-5-(2-oxo-2-(4-(4-((5-(m-tolyl)imidazo[1,2-a]pyrazin-8-yl)amino)phenyl)piperazin-1-yl)ethoxy)isoindoline-1,3-dione]	6.89	4%	> 10000 nM
Cc1cccc(-c2cnc(Nc3ccc(N4CCN(C(=O)CCCNC(=O)COc5ccc6c(c5)C(=O)N(C5CCC(=O)NC5=O)C6=O)CC4)cc3)c3nccn23)c1 (stereo not drawn) [Compound 5, 2-((2-(2,6-Dioxopiperidin-3-yl)-1,3-dioxoisoindolin-5-yl)oxy)-N-(4-oxo-4-(4-(4-((5-(m-tolyl)imidazo[1,2-a]pyrazin-8-yl)amino)phenyl)piperazin-1-yl)butyl)acetamide]	7.15	18%	> 10000 nM
Cc1cccc(-c2cnc(Nc3ccc(N4CCN(C(=O)CCOCCNC(=O)COc5ccc6c(c5)C(=O)N(C5CCC(=O)NC5=O)C6=O)CC4)cc3)c3nccn23)c1 (stereo not drawn) [Compound 6, 2-((2-(2,6-Dioxopiperidin-3-yl)-1,3-dioxoisoindolin-5-yl)oxy)-N-(2-(3-oxo-3-(4-(4-((5-(m-tolyl)imidazo[1,2-a]pyrazin-8-yl)amino)phenyl)piperazin-1-yl)propoxy)ethyl)acetamide]	7.08	13%	> 10000 nM
Cc1cccc(-c2cnc(Nc3ccc(N4CCN(CCNC(=O)COc5ccc6c(c5)C(=O)N(C5CCC(=O)NC5=O)C6=O)CC4)cc3)c3nccn23)c1 (stereo not drawn) [Compound 7, 2-((2-(2,6-Dioxopiperidin-3-yl)-1,3-dioxoisoindolin-5-yl)oxy)-N-(2-(4-(4-((5-(m-tolyl)imidazo[1,2-a]pyrazin-8-yl)amino)phenyl)piperazin-1-yl)ethyl)acetamide]	7.48	27%	> 10000 nM
Cc1cccc(-c2cnc(Nc3cnn(C4CCN(CCNC(=O)COc5ccc6c(c5)C(=O)N(C5CCC(=O)NC5=O)C6=O)CC4)c3)c3nccn23)c1 (stereo not drawn) [Compound 8, 2-((2-(2,6-Dioxopiperidin-3-yl)-1,3-dioxoisoindolin-5-yl)oxy)-N-(2-(4-(4-((5-(m-tolyl)imidazo[1,2-a]pyrazin-8-yl)amino)-1H-pyrazol-1-yl)piperidin-1-yl)ethyl)acetamide]	> 9.30	73%	20 nM
Cc1cccc(-c2cnc(Nc3cccc(C4CCN(CCNC(=O)COc5ccc6c(c5)C(=O)N(C5CCC(=O)NC5=O)C6=O)CC4)c3)c3nccn23)c1 (stereo not drawn) [Compound 9, 2-((2-(2,6-Dioxopiperidin-3-yl)-1,3-dioxoisoindolin-5-yl)oxy)-N-(2-(4-(3-((5-(m-tolyl)imidazo[1,2-a]pyrazin-8-yl)amino)phenyl)piperidin-1-yl)ethyl)acetamide]	6.67	33%	> 10000 nM
Cc1cccc(-c2cnc(Nc3ccc(C4CCN(CCNC(=O)COc5ccc6c(c5)C(=O)N(C5CCC(=O)NC5=O)C6=O)CC4)cc3)c3nccn23)c1 (stereo not drawn) [Compound 10, 2-((2-(2,6-Dioxopiperidin-3-yl)-1,3-dioxoisoindolin-5-yl)oxy)-N-(2-(4-(4-((5-(m-tolyl)imidazo[1,2-a]pyrazin-8-yl)amino)phenyl)piperidin-1-yl)ethyl)acetamide]	6.63	30%	> 10000 nM
Cc1cccc(-c2cnc(Nc3cccc(N4CCN(CCNC(=O)COc5ccc6c(c5)C(=O)N(C5CCC(=O)NC5=O)C6=O)CC4)c3)c3nccn23)c1 (stereo not drawn) [Compound 11, 2-((2-(2,6-Dioxopiperidin-3-yl)-1,3-dioxoisoindolin-5-yl)oxy)-N-(2-(4-(3-((5-(m-tolyl)imidazo[1,2-a]pyrazin-8-yl)amino)phenyl)piperazin-1-yl)ethyl)acetamide]	5.27	21%	> 10000 nM
Cc1cccc(-c2cnc(Nc3cnn(C4CCN(C5CCC6(CC5)CCN(C(=O)c5ccc7c(c5)CN(C5CCC(=O)NC5=O)C7=O)CC6)CC4)c3)c3nccn23)c1 (stereo not drawn) [Compound 12, 3-(1-Oxo-5-(9-(4-(4-((5-(m-tolyl)imidazo[1,2-a]pyrazin-8-yl)amino)-1H-pyrazol-1-yl)piperidin-1-yl)-3-azaspiro[5.5]undecane-3-carbonyl)isoindolin-2-yl)piperidine-2,6-dione]	8.70	81%	10 nM
